Measurements reported in paper PMC11249637, “Interaction of the Atypical Tetracyclines Chelocardin and Amidochelocardin with Renal Drug Transporters” (ACS Pharmacology & Translational Science, 2024).

Assays:
hOAT1 = target: T1, hOAT1 (Homo sapiens, UniProt Q4U2R8); test: Two-point inhibition of hOAT1-mediated PAH uptake in transfected HEK293 cells; format: in vitro ADME; settings: PAH 10 μM, 1 min
T1 construct: expressed in transfected cells; host or cells: HEK293
T1 sequence (Q4U2R8 1-563): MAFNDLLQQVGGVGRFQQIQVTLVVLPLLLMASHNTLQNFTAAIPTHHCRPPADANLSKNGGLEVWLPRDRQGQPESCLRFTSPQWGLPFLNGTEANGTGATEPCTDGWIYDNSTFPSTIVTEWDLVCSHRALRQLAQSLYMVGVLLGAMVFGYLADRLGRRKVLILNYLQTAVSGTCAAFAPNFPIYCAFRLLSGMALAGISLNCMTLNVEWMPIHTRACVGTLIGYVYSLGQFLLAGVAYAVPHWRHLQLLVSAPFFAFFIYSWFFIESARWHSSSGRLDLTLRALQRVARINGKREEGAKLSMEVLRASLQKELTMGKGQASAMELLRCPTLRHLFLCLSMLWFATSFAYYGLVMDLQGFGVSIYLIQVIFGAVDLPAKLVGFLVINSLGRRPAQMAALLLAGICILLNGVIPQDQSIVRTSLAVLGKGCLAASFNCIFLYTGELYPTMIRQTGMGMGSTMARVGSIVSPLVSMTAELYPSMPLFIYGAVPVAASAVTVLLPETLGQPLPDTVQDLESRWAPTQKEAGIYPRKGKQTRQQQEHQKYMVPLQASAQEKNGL
Method: (§1) Well-characterized mOct1-, mOct2-, mOat1-, mOat2-, mOat3-, mMate1-, hOAT1-, hOAT3-, hOAT4-, hMRP2-, mMdr1a- and mMdr1b-transfected HEK293 cells and the respective vector-transfected control HEK293 cells were used.[42],[51],[52] All HEK293 cells (transporter-transfected and vector-transfected) were cultured in DMEM (Sigma, high glucose, 10% FBS, 1% penicillin (10,000 Units/mL)/streptomycin (10 mg/mL)) at 37°C under 5% CO2 in humidified atmosphere. The cells were routinely checked for the absence of mycoplasma infection. For the preparation of HEK293 cell monolayers, 24-well plates were pretreated with a poly-D-lysine hydrobromide solution (0.1 mg/mL). […]
(§2) For the uptake assay, the growth medium was aspirated, and each well was rinsed three times with 0.5 mL of incubation buffer (HBSS supplemented with 20 mM HEPES, pH 7.4) and incubated for 20 min at 37 °C. […] Cells were solubilized with 0.6 mL of 1N NaOH overnight and transferred into scintillation vials. ^3H and ^14C contents were measured after the addition of 2.5 mL of scintillator in a liquid scintillation counter.
(§3) The cellular protein amount was determined in parallel for each cell line (vector- and transporter-transfected) from six wells in a different 24-well reference plate using the Bradford method. […]
(§4) The inhibitory effect (I(%)) was calculated according to the formula: [drawing 5] […]

hOAT3 = target: T2, hOAT3 (Homo sapiens, UniProt Q8TCC7); test: Two-point inhibition of hOAT3-mediated ES uptake in transfected HEK293 cells; format: in vitro ADME; settings: ES 1 μM, 1 min
T2 construct: expressed in transfected cells; host or cells: HEK293
T2 sequence (Q8TCC7 1-542): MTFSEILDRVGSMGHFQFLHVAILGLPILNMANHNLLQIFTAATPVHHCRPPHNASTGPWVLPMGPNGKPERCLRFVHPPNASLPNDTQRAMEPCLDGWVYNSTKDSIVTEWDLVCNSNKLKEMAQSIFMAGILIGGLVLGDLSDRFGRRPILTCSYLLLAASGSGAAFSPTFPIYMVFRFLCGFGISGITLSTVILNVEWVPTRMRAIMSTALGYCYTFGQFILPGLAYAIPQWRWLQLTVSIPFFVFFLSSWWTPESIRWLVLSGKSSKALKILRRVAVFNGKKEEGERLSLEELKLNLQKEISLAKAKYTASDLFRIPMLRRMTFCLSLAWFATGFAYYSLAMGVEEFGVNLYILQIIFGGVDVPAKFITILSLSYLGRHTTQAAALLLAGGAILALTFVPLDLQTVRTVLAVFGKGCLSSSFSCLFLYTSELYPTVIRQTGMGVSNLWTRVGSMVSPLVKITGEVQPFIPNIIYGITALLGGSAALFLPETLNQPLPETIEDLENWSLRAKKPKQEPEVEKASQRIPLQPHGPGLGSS
Method: as §1, §2, §3, §4

Row | Structure (SMILES) | inhibitory effect on hOAT1 (in words) (hOAT1; 1 and 10 μM) | inhibition of hOAT3 (in words) (hOAT3; 1 and 10 μM) | inhibition at 10 µM (hOAT1; HEK293, at 10 μM, read-out: inhibitory effect on hOAT1) [%] | inhibition at 10 µM (hOAT3; HEK293, at 10 μM, read-out: inhibitory effect on hOAT3) [%]
1 | Cc1ccc2c(C)c3c(c(O)c2c1O)C(=O)[C@@]1(O)C(=O)C(C(N)=O)=C(O)[C@@H](N)[C@H]1C3 [CDCHD, amidochelocardin] | No inhibitory effect | only marginally | – | –
2 | CC(=O)C1=C(O)[C@@H](N)[C@H]2Cc3c(c(O)c4c(O)c(C)ccc4c3C)C(=O)[C@@]2(O)C1=O [CHD, chelocardin] | – | – | ~50 | ~75
